Measured values published in publication PMC7523345 (Investigational new drugs, 2018).
“Also recorded” adds a separate entry of the source.

Assay: Phase I dose escalation study: safety, tolerability, DLT and MTD
Format: in vivo

SMILES: Cc1cccc2c1NC(=O)[C@@H](NC(=O)[C@H](CCC(F)(F)F)[C@H](CCC(F)(F)F)C(N)=O)N=C2c1cccc(F)c1 [BMS-986115]
- Rash maculopapular (drug related AE, all grades) (Arm A QD 0.6 mg (N = 2)): 0 n (%)
- Sinusitis (drug related AE, all grades) (Arm A QD 0.6 mg (N = 2)): 0 n (%)
- Urticaria (drug related AE, Grade 3 and 4) (Arm A QD 0.6 mg (N = 2)): 0 n (%)
- Vision blurred (drug related AE, all grades) (Arm A QD 0.6 mg (N = 2)): 0 n (%)
- Vomiting (drug related AE, Grade 3 and 4) (Arm A QD 0.6 mg (N = 2)): 0 n (%)
- Vomiting (drug related AE, all grades) (Arm A QD 0.6 mg (N = 2)): 1 (50) n (%)
- Weight decreased (drug related AE, all grades) (Arm A QD 0.6 mg (N = 2)): 0 n (%)
- No. of patients with DLTs (Arm A QD 0.6 mg, 2 DLT evaluable patients): 0
- Abdominal distension (drug related AE, all grades) (Arm A QD 1.2 mg (N = 6)): 0 n (%)
- Abdominal pain (drug related AE, Grade 3 and 4) (Arm A QD 1.2 mg (N = 6)): 0 n (%)
- Abdominal pain (drug related AE, all grades) (Arm A QD 1.2 mg (N = 6)): 0 n (%)
- Blood creatinine increased (drug related AE, all grades) (Arm A QD 1.2 mg (N = 6)): 0 n (%)
- Colitis (drug related AE, Grade 3 and 4) (Arm A QD 1.2 mg (N = 6)): 1 (17) n (%)
- Cough (drug related AE, Grade 3 and 4) (Arm A QD 1.2 mg (N = 6)): 0 n (%)
- Cough (drug related AE, all grades) (Arm A QD 1.2 mg (N = 6)): 0 n (%)
- Decreased Appetite (drug related AE, Grade 3 and 4) (Arm A QD 1.2 mg (N = 6)): 0 n (%)
- Decreased Appetite (drug related AE, all grades) (Arm A QD 1.2 mg (N = 6)): 2 (33) n (%)
- Dehydration (drug related AE, Grade 3 and 4) (Arm A QD 1.2 mg (N = 6)): 0 n (%)
- Dehydration (drug related AE, all grades) (Arm A QD 1.2 mg (N = 6)): 2 (33) n (%)
- Dermatitis acneiform (drug related AE, all grades) (Arm A QD 1.2 mg (N = 6)): 0 n (%)
- Diarrhoea (drug related AE, Grade 3 and 4) (Arm A QD 1.2 mg (N = 6)): 1 (17) n (%)
- Diarrhoea (drug related AE, all grades) (Arm A QD 1.2 mg (N = 6)): 6 (100) n (%)
- Dry mouth (drug related AE, all grades) (Arm A QD 1.2 mg (N = 6)): 1 (17) n (%)
- Dry skin (drug related AE, all grades) (Arm A QD 1.2 mg (N = 6)): 1 (17) n (%)
- Dysgeusia (drug related AE, all grades) (Arm A QD 1.2 mg (N = 6)): 2 (33) n (%)
- Dyspepsia (drug related AE, all grades) (Arm A QD 1.2 mg (N = 6)): 1 (17) n (%)
- Dysphonia (drug related AE, all grades) (Arm A QD 1.2 mg (N = 6)): 0 n (%)
- Fatigue (drug related AE, Grade 3 and 4) (Arm A QD 1.2 mg (N = 6)): 0 n (%)
- Fatigue (drug related AE, all grades) (Arm A QD 1.2 mg (N = 6)): 2 (33) n (%)
- Flatulence (drug related AE, all grades) (Arm A QD 1.2 mg (N = 6)): 0 n (%)
- Hypocalcaemia (drug related AE, Grade 3 and 4) (Arm A QD 1.2 mg (N = 6)): 0 n (%)
- Hypocalcaemia (drug related AE, all grades) (Arm A QD 1.2 mg (N = 6)): 0 n (%)
- Hypokalaemia (drug related AE, Grade 3 and 4) (Arm A QD 1.2 mg (N = 6)): 1 (17) n (%)
- Hypokalaemia (drug related AE, all grades) (Arm A QD 1.2 mg (N = 6)): 3 (50) n (%)
- Hyponatraemia (drug related AE, Grade 3 and 4) (Arm A QD 1.2 mg (N = 6)): 0 n (%)
- Hyponatraemia (drug related AE, all grades) (Arm A QD 1.2 mg (N = 6)): 0 n (%)
- Hypophosphataemia (drug related AE, Grade 3 and 4) (Arm A QD 1.2 mg (N = 6)): 2 (33) n (%)
- Hypophosphataemia (drug related AE, all grades) (Arm A QD 1.2 mg (N = 6)): 6 (100) n (%)
- Ileus (drug related AE, Grade 3 and 4) (Arm A QD 1.2 mg (N = 6)): 0 n (%)
- Increased upper airway secretion (drug related AE, all grades) (Arm A QD 1.2 mg (N = 6)): 0 n (%)
- Laryngeal pain (drug related AE, all grades) (Arm A QD 1.2 mg (N = 6)): 0 n (%)
- Leucocytosis (drug related AE, Grade 3 and 4) (Arm A QD 1.2 mg (N = 6)): 0 n (%)
- Mouth ulceration (drug related AE, all grades) (Arm A QD 1.2 mg (N = 6)): 1 (17) n (%)
- Nausea (drug related AE, Grade 3 and 4) (Arm A QD 1.2 mg (N = 6)): 0 n (%)
- Nausea (drug related AE, all grades) (Arm A QD 1.2 mg (N = 6)): 4 (67) n (%)
- Pruritus (drug related AE, Grade 3 and 4) (Arm A QD 1.2 mg (N = 6)): 0 n (%)
- Pruritus (drug related AE, all grades) (Arm A QD 1.2 mg (N = 6)): 0 n (%)
- Pulmonary embolism (drug related AE, Grade 3 and 4) (Arm A QD 1.2 mg (N = 6)): 0 n (%)
- Rash (drug related AE, all grades) (Arm A QD 1.2 mg (N = 6)): 3 (50) n (%)
- Rash maculopapular (drug related AE, all grades) (Arm A QD 1.2 mg (N = 6)): 0 n (%)
- Sinusitis (drug related AE, all grades) (Arm A QD 1.2 mg (N = 6)): 1 (17) n (%)
- Urticaria (drug related AE, Grade 3 and 4) (Arm A QD 1.2 mg (N = 6)): 0 n (%)
- Vision blurred (drug related AE, all grades) (Arm A QD 1.2 mg (N = 6)): 0 n (%)
- Vomiting (drug related AE, Grade 3 and 4) (Arm A QD 1.2 mg (N = 6)): 0 n (%)
- Vomiting (drug related AE, all grades) (Arm A QD 1.2 mg (N = 6)): 2 (33) n (%)
- Weight decreased (drug related AE, all grades) (Arm A QD 1.2 mg (N = 6)): 1 (17) n (%)
- Description of DLT (Arm A QD 1.5 mg): Gr 3 nausea; also recorded: G3 nausea
- Description of study drug toxicity that led to treatment discontinuation (Arm A QD 1.5 mg): G3 Nausea concurrent with G2 diarrhoea (N = 1); also recorded: G2 Dermatitis acneiform (N = 1)
- Abdominal distension (drug related AE, all grades) (Arm A QD 1.5 mg (N = 7)): 1 (14) n (%)
- Abdominal pain (drug related AE, Grade 3 and 4) (Arm A QD 1.5 mg (N = 7)): 1 (14) n (%)
- Abdominal pain (drug related AE, all grades) (Arm A QD 1.5 mg (N = 7)): 1 (14) n (%)
- Blood creatinine increased (drug related AE, all grades) (Arm A QD 1.5 mg (N = 7)): 0 n (%)
- Colitis (drug related AE, Grade 3 and 4) (Arm A QD 1.5 mg (N = 7)): 0 n (%)
- Cough (drug related AE, Grade 3 and 4) (Arm A QD 1.5 mg (N = 7)): 0 n (%)
- Cough (drug related AE, all grades) (Arm A QD 1.5 mg (N = 7)): 2 (29) n (%)
- Decreased Appetite (drug related AE, Grade 3 and 4) (Arm A QD 1.5 mg (N = 7)): 0 n (%)
- Decreased Appetite (drug related AE, all grades) (Arm A QD 1.5 mg (N = 7)): 1 (14) n (%)
- Dehydration (drug related AE, Grade 3 and 4) (Arm A QD 1.5 mg (N = 7)): 0 n (%)
- Dehydration (drug related AE, all grades) (Arm A QD 1.5 mg (N = 7)): 0 n (%)
- Dermatitis acneiform (drug related AE, all grades) (Arm A QD 1.5 mg (N = 7)): 4 (57) n (%)
